Source: US12054466B2, “Compounds for the treatment of clostridium difficile infection” (University of Notre Dame du Lac, priority 2016, dated 2024)
Where two headings read alike, the source gives them in different places.

Experiments:
[1] = cited from earlier work
[2] = mouse, in vivo, po, 20 mg/kg, 24 h
[3] = Toxicity and fecal concentration after multiple oral doses
[4] = system: DNA, protein and peptidoglycan synthesis in C. difficile ATCC 43255; assay: Macromolecular synthesis assays; type: cell-based
Source text: Macromolecular synthesis assays. The method of Mathur et al (J Antimicrob Chemother 2011, 66(5), 1087) was used with a few modifications. [2,8-^3H]-adenine (40 Ci/mmol), 1-[3,4,5-^3H(N)]-leucine (120 Ci/mmol), and N-acetyl-d-[6-^3H]-glucosamine (30 Ci/mmol) were purchased from Perkin Elmer (Waltham, MA). Ciproflaxin, linezolid, and oxacillin, were used as positive controls for DNA, protein, and peptidoglycan, respectively. Ciprofloxacin and oxacillin were purchased from Sigma-Aldrich (St. Louis, MO), linezolid was obtained from AmplaChem Inc. (Carmel, IN). […] Aliquots were taken every 30 min for radioactive counting and viability. Optimal incubation times were 60 min for DNA, 180 min for protein, and 120 min for peptidoglycan.

[5] = system: C. difficile strain ATCC 43255; assay: Mouse model of recurrent CDI, second study: fecal cell, spore and toxin evaluation; type: in vivo, mice
Method: C. difficile Mouse Model. […] A negative vehicle control will be included. […] This study was conducted in duplicates.
A second study was conducted with oxadiazole 2 given po at 20 or 40 mg/kg for 5 days and vancomycin administered at 50 mg/kg po for 5 days. Fecal samples were collected on days 3, 7, and 10 for C. difficile spore and toxin evaluation.

[6] = Pharmacokinetics after single po and iv administration
[7] = system: C. difficile strain ATCC 43255; assay: Mouse model of recurrent CDI, survival; conditions: po once a day for 5 days; oxadiazole 2 20 mg/kg/day, vancomycin 50 mg/kg/day
[8] = system: C. difficile ATCC43255; assay: Inhibition of vegetative cells, spores and toxins in exponential phase cells
[9] = system: C. difficile; assay: MIC against C. difficile (strain not named; 14 strains overall); type: cell-based, Clostridium difficile; conditions: 14 C. difficile strains
[10] = system: C. difficile infection; conditions: cited from earlier work
[11] = summary statement, species not given
[12] = 40 mg/kg/day po for 5 days, uninfected mice
[13] = female, C57B1/6, mouse, feces, po, 40 mg/kg/day

Compound: FC(F)(F)c1ccc(Oc2ccc(-c3noc(-c4ccc5[nH]ccc5c4)n3)cc2)cc1 [Compound 1]
- clearance ([1]; in words): low clearance
- Oral bioavailability [1, 11]: 97%
- Terminal half-life [1, 11]: 18.6 h

Compound: Oc1ccc(-c2nc(-c3ccc(OC4CCCC4)cc3)no2)cc1 [Compound 2]
- Level in feces as multiple of MIC [2]: approximately 20 ×MIC
- Tolerability [3, 12]: well tolerated
- Weight loss [3, 12]: did not result in weight loss
- Body weight ([3]; Day 1, 40 mg/kg/day po for 5 days, uninfected mice): 19.6 ± 0.6 g
- Body weight ([3]; Day 2, 40 mg/kg/day po for 5 days, uninfected mice): 19.8 ± 0.6 g
- Body weight ([3]; Day 3, 40 mg/kg/day po for 5 days, uninfected mice): 19.8 ± 1.0 g
- Body weight ([3]; Day 4, 40 mg/kg/day po for 5 days, uninfected mice): 19.7 ± 1.0 g
- Body weight ([3]; Day 5, 40 mg/kg/day po for 5 days, uninfected mice): 19.4 ± 0.6 g
- Oxadiazole 2 in Feces ([3]; Day 5, 40 mg/kg/day po for 5 days, uninfected mice, 40 mg/kg/day): 30.8 ± 11.1 μg/g feces
- concentration at 5 day ([3]; female, C57B1/6, mouse, feces, oral, 40 mg/kg): 30800 ng/mL
- concentration at 1 day [3, 13]: 9800 ± 400 ng/g
- concentration at 2 day [3, 13]: 15000 ± 3700 ng/g
- concentration at 3 day [3, 13]: 18100 ± 2400 ng/g
- concentration at 4 day [3, 13]: 16900 ± 1800 ng/g
- concentration at 5 day [3, 13]: 30800 ± 11100 ng/g
- Inhibition of peptidoglycan synthesis ([4]; N-acetyl-d-[6-3H]-glucosamine incorporation, ½ MIC, 120 min): 54.8±3.7%
- Inhibition of DNA synthesis ([4]; [2,8-3H]adenine incorporation, in words): not significant
- Inhibition of protein synthesis ([4]; l-[3,4,5-3H(N)]-leucine incorporation, in words): not significant
- Decrease in spores in feces ([5]; 20 mg/kg group): 3 log
- Total cell counts in feces, lower on day 10 compared to day 3 ([5]; 20 mg/kg/day for 5 days): 3.44 log
- Spores in feces ([5]; 40 mg/kg group, days 3, 7 and 10, in words): no spores were observed at any time
- Toxin production in feces ([5]; 40 mg/kg group, in words): no toxin production was detected
- Total cell counts in feces, lower on day 10 compared to day 3 ([5]; 40 mg/kg/day for 5 days): 4.68 log
- Reduction in spores in feces ([5]; b100, 20 mg/kg): 1.85 log
- Reduction in vegetative cells in feces by day 10 ([5]; dose of compound 2 not stated): about 3 log
- Clearance as share of hepatic blood flow ([6]; mice, 20 mg/kg iv): approximately 20%
- Absolute oral bioavailability F ([6]; mice, 20 mg/kg po vs iv, 20 mg/kg): 4%
- concentration at 24 h ([6]; mouse, feces, po, 20 mg/kg): 43000 ± 3000 ng/g
- AUC(0-inf) ([6]; mouse, plasma, iv, 20 mg/kg): 19200 ng·h/mL
- Vd ([6]; mouse, plasma, iv, 20 mg/kg): 1.8 L/kg
- clearance ([6]; mouse, plasma, iv, 20 mg/kg): 17.4 mL/min/kg
- half-life ([6]; mouse, plasma, iv, 20 mg/kg): 1.2 h
- bioavailability ([6]; mouse, plasma, oral, 20 mg/kg, Absolute oral bioavailability F, mice, 20 mg/kg po vs iv): 3.8%
- AUC(0-inf) ([6]; mouse, plasma, po, 20 mg/kg): 733 ng·h/mL
- Cmax ([6]; mouse, plasma, po, 20 mg/kg): 300 ng/mL
- half-life ([6]; mouse, plasma, po, 20 mg/kg): 1.1 h
- Survival after 25 days [7]: 70%
- Concentration that inhibited growth of vegetative cells ([8]; 24 hours): 1 ×MIC
- Concentration that inhibited toxin production ([8]; 24 hours, TcdA and TcdB by ELISA): 1 ×MIC
- Concentration that inhibited spore production ([8]; 48 hours): ¼
- Concentration that inhibited toxin production ([8]; 48 hours): 1 ×MIC
- Concentration that inhibited spores ([8]; 72 hours): 1 ×MIC
- Concentration that inhibited toxin production ([8]; 72 hours): 1 ×MIC
- Concentration that inhibited vegetative cells ([8]; 72 hours): 1 ×MIC

Compound: CCc1c(Cl)c(O)c(Cl)c(O)c1C(=O)O[C@H]1[C@H](O)[C@H](OC)[C@H](OC/C2=C\C=C\C[C@H](O)/C(C)=C/[C@H](CC)[C@@H](O[C@@H]3OC(C)(C)[C@@H](OC(=O)C(C)C)[C@H](O)[C@@H]3O)/C(C)=C/C(C)=C/C[C@@H]([C@@H](C)O)OC2=O)O[C@@H]1C [fidaxomicin]
- MIC range in 14 C. difficile strains [9]: <0.01 to 0.25 µg/mL
- Treatment failure ([10]; CDI): 12%
- Patients with recurrence of the infection ([10]; patients treated for CDI): About 25%
